Data as given in ChEMBL document CHEMBL4433202, “Design and development of multitarget-directed N-Benzylpiperidine analogs as potential candidates for the treatment of Alzheimer's disease” (Eur J Med Chem, 2019).
pIC50, pKi: −log10 of the molar value. Active and inactive are the calls of the source. The rule behind the calls is not given here.

Tests used:
Acetylcholinesterase [1] = molecular target: T1, Acetylcholinesterase (Homo sapiens, UniProt P22303); assay: Inhibition of human erythrocyte acetylcholinesterase using acetylthiocholine iodide as substrate pre-incubated for 10 mins followed by substrate addition and measured for 6 mins by Ellman's method
Cholinesterase = Cholinesterase (Homo sapiens, UniProt P06276); assay: Inhibition of human serum butyrylcholinesterase using BTCI as substrate pre-incubated for 10 mins followed by substrate addition and measured for 6 mins by Ellman's method
Beta-secretase 1 = Beta-secretase 1 (Homo sapiens, UniProt P56817); assay: Inhibition of human BACE1 using as 7-Methoxycoumarin-4-acetyl-[Asn670, Leu671]-Amyloid beta/A4 precursor protein 770 fragment 667-676-(2,4-dinitrophenyl) Lys-Arg-Arg amide trifluoroacetate salt as substrate incubated for 2 hrs by FRET based florescence assay
Rattus norvegicus [2] = assay: Cognitive enhancing effect in Wistar rat model of amyloid beta (1 to 42) oligomer-induced memory impairment model assessed as escape latency time at 5 mg/kg, po for 9 days by Morris water maze test (reference value: 49.3 to 74 secs); type: functional
Rattus norvegicus [3] = assay: Antioxidant activity Wistar rat model of scopolamine-induced amnesia assessed as reduction in MDA levels in brain homogenates at 10 mg/kg, po by TBARS assay; type: functional, organism-based
Acetylcholinesterase [4] = molecular target: T1, Acetylcholinesterase; assay: Non-competitive inhibition of human erythrocyte AChE using acetylthiocholine iodide as substrate preincubated for 10 mins followed by substrate addition and measured for 6 mins by Lineweaver-Burk plot analysis
Acetylcholinesterase [5] = molecular target: T1, Acetylcholinesterase; assay: Non-competitive inhibition of human erythrocyte AChE using acetylthiocholine iodide as substrate preincubated for 10 mins followed by substrate addition and measured for 6 mins by Dixon plot analysis
[6] = Permeability of the compound at 25 ug/ml after 18 hrs by PAMPA-BBB assay
[7] = molecular target: Amyloid-beta precursor protein (Homo sapiens) (UniProt P05067); assay: Inhibition of amyloid beta 1 to 42 (unknown origin) aggregation assessed as oligomer height at 10 uM incubated for 7 days by AFM analysis
[8] = molecular target: Amyloid-beta precursor protein (Homo sapiens) (UniProt P05067); assay: Inhibition of amyloid beta 1 to 42 (unknown origin) aggregation assessed as roughness index at 10 uM incubated for 7 days by AFM analysis
[9] = Cytotoxicity against human SH-SY5Y cells assessed as cell viability at 10 to 80 uM after 48 hrs by MTT assay relative to control; type: cell-based; conditions: read-out: Activity
[10] = Acute toxicity in Wistar rat assessed as induction of abnormal reactions at 100 to 500 mg/kg, po measured up to 14 days; type: organism-based; conditions: in vivo, 336 h
Rattus norvegicus [11] = assay: Reversal of scopolamine-induced spatial memory impairment in Wistar rat model of amnesia assessed as decrease in transfer latency at 2.5 to 10 mg/kg, po administered once daily for 1 week followed by scopolamine challenge 30 mins prior to test by elevated plus maze test; type: functional, organism-based
Rattus norvegicus [12] = assay: Reversal of scopolamine-induced spatial memory impairment in Wistar rat model of amnesia assessed as decrease in time spent on open arms at 2.5 to 10 mg/kg, po administered once daily for 1 week followed by scopolamine challenge 30 mins prior to test by elevated plus maze test; type: functional, organism-based
Rattus norvegicus [13] = assay: Reversal of scopolamine-induced spatial memory impairment in Wistar rat model of amnesia assessed as increase in spontaneous alteration at 10 mg/kg, po administered once daily for 1 week followed by scopolamine challenge 30 mins prior to test by Y-maze test relative to control; type: functional, organism-based
Rattus norvegicus [14] = assay: In-vivo inhibition of scopolamine-induced acetylcholinesterase activity in Wistar rat brain homogenates using acetylthiocholine iodide as substrate at 10 mg/kg, po and measured for 6 mins by Ellman's method; type: functional, organism-based
Rattus norvegicus [15] = assay: Antioxidant activity Wistar rat model of scopolamine-induced amnesia assessed as increase in SOD levels in brain homogenates at 10 mg/kg, po by NBT dye based assay; type: functional, organism-based
Rattus norvegicus [16] = assay: Cognitive enhancing effect in Wistar rat model of amyloid beta (1 to 42) oligomer-induced memory impairment model assessed as escape latency time at 10 mg/kg, po for 9 days by Morris water maze test (reference value: 49.3 to 74 secs); type: functional, organism-based
Rattus norvegicus [17] = assay: Cognitive enhancing effect in Wistar rat model of amyloid beta (1 to 42) oligomer-induced memory impairment model assessed as increase in number of platform crossings at 10 mg/kg, po for 9 days by Morris water maze test; type: functional, organism-based
[18] = Cmax in Wistar rat at 10 mg/kg, po measured up to 0 to 72 hrs; type: ADME, organism-based; set-up: dose 10 mg/kg, route oral; conditions: in vivo
[19] = Tmax in Wistar rat at 10 mg/kg, po measured up to 0 to 72 hrs; type: ADME, organism-based; conditions: in vivo
[20] = AUC (0 to 24 hrs) in Wistar rat at 10 mg/kg, po; type: ADME, organism-based; set-up: dose 10 mg/kg, time < 24 hr, route oral; conditions: in vivo
[21] = MRT in Wistar rat at 10 mg/kg, po measured up to 0 to 72 hrs; type: ADME, organism-based; conditions: in vivo
[22] = Elimination half life in Wistar rat at 10 mg/kg, po measured up to 0 to 72 hrs; type: ADME, organism-based; conditions: in vivo, read-out: beta t1/2 (converted)
Rattus norvegicus [23] = assay: Effect on total arm entries in scopolamine-induced spatial memory impairment in Wistar rat model of amnesia at 10 mg/kg, po administered once daily for 1 week followed by scopolamine challenge 30 mins prior to test by Y-maze test relative to control; type: functional, organism-based
[24] = Acute toxicity in Wistar rat at 100 to 500 mg/kg, po measured up to 14 days; type: organism-based; conditions: in vivo, 336 h

Chain of Cholinesterase (P06276 whole entry, the tested form may be a part): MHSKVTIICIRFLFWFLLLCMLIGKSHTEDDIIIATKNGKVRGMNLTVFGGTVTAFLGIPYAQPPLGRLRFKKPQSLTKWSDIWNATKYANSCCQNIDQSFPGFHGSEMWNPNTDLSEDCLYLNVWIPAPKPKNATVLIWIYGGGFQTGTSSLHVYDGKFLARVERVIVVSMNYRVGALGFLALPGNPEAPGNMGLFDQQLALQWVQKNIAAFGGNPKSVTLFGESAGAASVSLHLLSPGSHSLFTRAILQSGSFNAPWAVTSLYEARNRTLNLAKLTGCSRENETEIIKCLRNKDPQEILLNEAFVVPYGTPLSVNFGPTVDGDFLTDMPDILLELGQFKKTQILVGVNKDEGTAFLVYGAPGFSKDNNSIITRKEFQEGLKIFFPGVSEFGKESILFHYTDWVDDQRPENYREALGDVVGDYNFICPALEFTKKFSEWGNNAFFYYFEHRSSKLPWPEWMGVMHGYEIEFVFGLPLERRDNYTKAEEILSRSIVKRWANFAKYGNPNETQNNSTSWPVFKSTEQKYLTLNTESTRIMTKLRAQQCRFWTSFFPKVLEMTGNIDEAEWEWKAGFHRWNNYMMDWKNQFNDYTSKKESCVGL
T1 sequence (P22303 whole entry): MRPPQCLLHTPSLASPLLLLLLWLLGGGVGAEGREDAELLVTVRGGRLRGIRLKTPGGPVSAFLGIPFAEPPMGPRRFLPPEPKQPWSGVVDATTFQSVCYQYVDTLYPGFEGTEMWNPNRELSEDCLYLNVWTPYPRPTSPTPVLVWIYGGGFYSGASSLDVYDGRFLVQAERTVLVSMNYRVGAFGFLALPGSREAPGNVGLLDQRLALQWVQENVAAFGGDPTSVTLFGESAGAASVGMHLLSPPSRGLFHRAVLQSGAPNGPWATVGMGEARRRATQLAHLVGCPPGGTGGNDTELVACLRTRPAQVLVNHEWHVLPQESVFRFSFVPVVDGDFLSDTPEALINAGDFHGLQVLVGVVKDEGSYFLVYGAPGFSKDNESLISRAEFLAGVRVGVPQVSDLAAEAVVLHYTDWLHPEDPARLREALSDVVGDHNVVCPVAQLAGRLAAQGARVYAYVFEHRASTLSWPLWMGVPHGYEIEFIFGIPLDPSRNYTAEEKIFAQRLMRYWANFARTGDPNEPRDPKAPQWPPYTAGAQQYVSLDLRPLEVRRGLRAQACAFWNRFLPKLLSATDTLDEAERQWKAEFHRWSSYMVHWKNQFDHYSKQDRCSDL
Chain of Beta-secretase 1 (P56817 whole entry, the tested form may be a part): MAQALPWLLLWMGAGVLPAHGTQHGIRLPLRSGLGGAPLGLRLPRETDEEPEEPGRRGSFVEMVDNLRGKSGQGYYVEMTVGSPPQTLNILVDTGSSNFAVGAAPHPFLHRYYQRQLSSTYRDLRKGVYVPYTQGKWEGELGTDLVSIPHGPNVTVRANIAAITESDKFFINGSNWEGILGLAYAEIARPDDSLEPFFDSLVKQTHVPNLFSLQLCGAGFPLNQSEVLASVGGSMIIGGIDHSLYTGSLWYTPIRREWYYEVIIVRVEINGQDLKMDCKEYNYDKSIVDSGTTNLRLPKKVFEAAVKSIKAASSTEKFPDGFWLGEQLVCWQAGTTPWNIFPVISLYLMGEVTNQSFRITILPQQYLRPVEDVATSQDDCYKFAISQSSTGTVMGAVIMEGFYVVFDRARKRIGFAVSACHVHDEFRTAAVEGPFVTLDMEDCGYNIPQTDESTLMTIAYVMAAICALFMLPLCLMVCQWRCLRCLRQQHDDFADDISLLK
Chain of Amyloid-beta precursor protein (Homo sapiens) (P05067 whole entry): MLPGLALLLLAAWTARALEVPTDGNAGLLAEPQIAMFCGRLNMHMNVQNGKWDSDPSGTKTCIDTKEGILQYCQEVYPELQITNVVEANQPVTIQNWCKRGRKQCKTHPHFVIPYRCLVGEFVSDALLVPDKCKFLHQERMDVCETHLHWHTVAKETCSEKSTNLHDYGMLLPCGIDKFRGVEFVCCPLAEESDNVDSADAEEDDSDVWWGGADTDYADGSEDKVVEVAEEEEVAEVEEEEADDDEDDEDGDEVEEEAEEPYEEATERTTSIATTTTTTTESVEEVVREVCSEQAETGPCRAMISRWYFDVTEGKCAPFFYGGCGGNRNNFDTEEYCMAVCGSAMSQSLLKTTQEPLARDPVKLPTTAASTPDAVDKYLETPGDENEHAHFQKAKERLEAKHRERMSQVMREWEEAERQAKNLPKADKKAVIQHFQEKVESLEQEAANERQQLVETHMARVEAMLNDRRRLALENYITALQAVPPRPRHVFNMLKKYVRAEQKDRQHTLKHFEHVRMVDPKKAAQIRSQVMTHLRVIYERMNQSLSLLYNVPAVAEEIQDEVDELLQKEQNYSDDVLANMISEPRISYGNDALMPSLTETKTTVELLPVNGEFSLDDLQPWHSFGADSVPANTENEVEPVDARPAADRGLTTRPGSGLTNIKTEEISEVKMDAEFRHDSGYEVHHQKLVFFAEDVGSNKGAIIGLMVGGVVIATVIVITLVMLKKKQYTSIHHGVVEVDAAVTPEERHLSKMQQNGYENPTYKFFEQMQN

For `Fc1ccc(/C=N/C2CCN(Cc3ccccc3)CC2)c(F)c1`, the pIC50 (Acetylcholinesterase [1]) was 5.89, the pIC50 (Cholinesterase) was < 4.52 and the pIC50 (Beta-secretase 1) was 5.46.
With `Clc1ccc(/C=N/C2CCN(Cc3ccccc3)CC2)cc1` the pIC50 (Acetylcholinesterase [1]) was 5.82, the pIC50 (Cholinesterase) was 5.34 and the pIC50 (Beta-secretase 1) was 5.77.
Work on `Oc1ccccc1/C=N/C1CCN(Cc2ccccc2)CC1` yielded a pIC50 (Acetylcholinesterase [1]) of 5.55, a pIC50 (Cholinesterase) of 4.80 and a pIC50 (Beta-secretase 1) of 5.57.
With `C(=N\C1CCN(Cc2ccccc2)CC1)/c1ccccc1` the pIC50 (Acetylcholinesterase [1]) was 5.68, the pIC50 (Cholinesterase) was < 4.52 and the pIC50 (Beta-secretase 1) was 5.47.
With `COc1cccc(/C=N/C2CCN(Cc3ccccc3)CC2)c1OC` the pIC50 (Acetylcholinesterase [1]) was < 4.82, the pIC50 (Cholinesterase) was < 4.52 and the pIC50 (Beta-secretase 1) was 5.20.
`Clc1ccc(CNC2CCN(Cc3ccccc3)CC2)cc1` showed a pIC50 (Acetylcholinesterase [1]) of 6.07, a pIC50 (Cholinesterase) of 5.40 and a pIC50 (Beta-secretase 1) of 6.18.
With `Cc1ccc(CNC2CCN(Cc3ccccc3)CC2)cc1` the pIC50 (Acetylcholinesterase [1]) was 5.43, the pIC50 (Cholinesterase) was < 4.52 and the pIC50 (Beta-secretase 1) was 4.77.
With `Oc1ccc(CNC2CCN(Cc3ccccc3)CC2)cc1` the pIC50 (Acetylcholinesterase [1]) was 5.40, the pIC50 (Cholinesterase) was < 4.52 and the pIC50 (Beta-secretase 1) was 5.00.
Compound `COc1cc2c(cc1OC)C(=O)C(CC1CCN(Cc3ccccc3)CC1)C2` (stereo not given) [DONEPEZIL] has a Time (Rattus norvegicus [2]) of 22.5 to 72.5 s.
With `FC(F)(F)c1ccc(CNC2CCN(Cc3ccccc3)CC2)cc1` the Activity (Rattus norvegicus [3]) was “Active”, the pIC50 (Acetylcholinesterase [1]) was 6.96 and the pIC50 (Cholinesterase) was 5.52. For the same compound, the inhibition (Acetylcholinesterase [4]) was “Active”, the pKi (Acetylcholinesterase [5]) was 7.00 and the pIC50 (Beta-secretase 1) was 6.66. It also gave a Papp at 18 h, 25 ug/ml [6] of 6.09 ×10⁻⁶ cm/s, an Activity [7] of 44.5 to 104 nm and an Activity [8] of 1.7 to 4.4 nm. For the same compound, the viability at 48 h, up to 80 µM [9] was 84.6 to 99.2%, the Activity [10] was “Non-Toxic” and the Time (Rattus norvegicus [2]) was 20.3 to 74.5 s. The Activity (Rattus norvegicus [11]) was “Active”, the Activity (Rattus norvegicus [12]) was “Active” and the Activity (Rattus norvegicus [13]) was “Active”. The inhibition (Rattus norvegicus [14]) was “Active”, the Activity (Rattus norvegicus [15]) was “Active” and the Activity (Rattus norvegicus [16]) was “Active”. The Activity (Rattus norvegicus [17]) was “Active”, the Cmax [18] was 32.8 ng/mL and the Tmax [19] was 5.3 h. It also gave an AUC(0-t) at 24 h [20] of 633 ng·h/mL, an MRT [21] of 45.7 h and a half-life [22] of 29.2 h. The Activity (Rattus norvegicus [23]) was “inactive” and the Activity [24] was “Non-Toxic”.
In the case of `Fc1ccc(CNC2CCN(Cc3ccccc3)CC2)cc1`, the pIC50 (Acetylcholinesterase [1]) was 5.92, the pIC50 (Cholinesterase) was 5.41 and the pIC50 (Beta-secretase 1) was 6.26.
For `FC(F)(F)c1ccc(/C=N/C2CCN(Cc3ccccc3)CC2)cc1`, the pIC50 (Acetylcholinesterase [1]) was 6.36, the pIC50 (Cholinesterase) was 5.41 and the pIC50 (Beta-secretase 1) was 6.55. For the same compound, the Papp at 18 h, 25 ug/ml [6] was 6.24 ×10⁻⁶ cm/s.
Compound `COc1cccc(CNC2CCN(Cc3ccccc3)CC2)c1OC` has a pIC50 (Acetylcholinesterase [1]) of 5.66, a pIC50 (Cholinesterase) of 5.14 and a pIC50 (Beta-secretase 1) of 5.28.
With `Fc1ccc(CNC2CCN(Cc3ccccc3)CC2)c(F)c1` the pIC50 (Acetylcholinesterase [1]) was 6.15, the pIC50 (Cholinesterase) was 5.51 and the pIC50 (Beta-secretase 1) was 5.54.
`Oc1ccc(/C=N/C2CCN(Cc3ccccc3)CC2)c(O)c1` showed a pIC50 (Acetylcholinesterase [1]) of 5.59, a pIC50 (Cholinesterase) of 4.72 and a pIC50 (Beta-secretase 1) of 5.00.
With `Oc1ccc(/C=N/C2CCN(Cc3ccccc3)CC2)cc1` the pIC50 (Acetylcholinesterase [1]) was 5.32, the pIC50 (Cholinesterase) was < 4.52 and the pIC50 (Beta-secretase 1) was 4.92.
